Key:
Type in all cases: physicochemical
[1] = Stability of human ghrelin in 0.1M HCl and Mcllvain buffer solutions of various pH at 25°C (Example 2, HPLC peak area ratio); details: human ghrelin 0.5 mg/mL in Mcllvain buffer
Procedure: Human ghrelin was dissolved in the following aqueous solutions in the concentration of about 0.15 μmol/mL (0.5 mg/mL).
0.1M HCl aqueous solution (pH: 1.1)
The pH was adjusted with 0.1M citric aqueous acid and 0.2M dibasic sodium phosphate aqueous solution.
Each solution were stored at 25±2° C. for 8, 24, 48 and 72 hours respectively, and the obtained solutions were detected by HPLC analysis in comparison to the solutions before storage. […] No significant changes of pH in solution before storage and after storage were observed.

[2] = Stability of human ghrelin in Britton-Robinson buffer solutions of various pH at 40°C (Example 3); details: pH of 3.1, 4.0, 5.0 and 6.0, 40±1°C, storage time not stated, target value 85%
Procedure: Human ghrelin, which is one of the ghrelins, was dissolved in the Britton-Robinson buffer solutions which is adjusted by combining 0.04M phosphoric acid-acetic acid-boric acid aqueous solution and 0.2M sodium hydrate aqueous solution in appropriate ratio, having pH of 2.1, 3.1, 4.0, 5.0, 6.0, 7.0 and 7.9 to obtain an aqueous solution containing human ghrelin in the concentration of about 0.15 μmol/mL (0.5 mg/mL). The obtained solution was filled in brownish glass ampoules and the ampoules were sealed with fire. For the calculation of kinetic constant, the certain degrees of degradation products have to be occurred in the aqueous solution of the ghrelins, and therefore, the ampoules were stored at 40±1° C., which was severe conditions for storage. The concentration (residual ratio) of human ghrelin was conducted by HPLC with time. At the same time, the pH of the solution was measured and it was confirmed that there was no significant changes of pH in solution.
The kinetic constants in each pH solution were calculated from the sequential change of the residual ratio, and the results were shown in FIG. 2.

[3] = Stability of human ghrelin in citrate buffer solutions, 40°C/2 weeks (Example 4)
Procedure: The obtained solutions were filled in brownish glass ampoules and the ampoules were sealed with fire, then, each ampoules were stored at 40±1° C. for 2 weeks. After storage for 2 weeks, the HPLC analysis of the solutions was conducted to calculate the residual ratio from the concentration of human ghrelin. The change of pH value was also measured.

[4] = Stability of human ghrelin in pH-adjusted purified water at 25°C (Example 7); details: for Peak area ratio to total peak area: 25±2°C
Procedure: Human ghrelin was dissolved in the purified water with about 0.03 μmol/mL (0.1 mg/mL). […] This solution was divided into quarter, and one portion was kept alone and the pH values of the remaining three portions were adjusted to pH 1.8 (with 17 mM of hydrochloric acid), pH 3.9 (with 0.20 mM of hydrochloric acid) and pH 7.8 (with 0.24 mM of sodium hydroxide) respectively, by adding along with hydrochloric acid or sodium hydroxide aqueous solution.

[5] = Adsorption inhibiting effect of anti-adsorbents on human ghrelin in glass and polypropylene test tubes (Example 9); details: human ghrelin 1.0 μg/mL in 5% mannitol-0.05M glycine hydrochloride buffer (pH 3.5), anti-adsorbent None (control)
Procedure: As the anti-adsorbent, the surfactant, that is, polyoxyethylene sorbitan monooleate (hereinafter, referred to as Tween® 80), and benzalkonium chloride were selected.
The anti-adsorbent was added to this solution with 0.01% or 0.1% concentration.
The human ghrelin concentrations of each solution were measured by HPLC method right after preparation, and these solutions were replaced in glass test tubes. After that, each solution were further replaced in new glass test tubes, and same operation was repeated for 5 and 10 times, then, the human ghrelin concentrations of each treated solution were measured by HPLC method. As a control, the solution not containing anti-adsorbent was examined.
Same procedure was repeated by using test tube made by polypropylene instead of glass test tube.

[6] = human ghrelin 0.5 mg/mL in citrate buffer solution pH 3.5, after storage for 40° C./2 weeks
[7] = human ghrelin 0.5 mg/mL in citrate buffer solution pH 3.5, just after preparation
[8] = human ghrelin 0.5 mg/mL in citrate buffer solution pH 4.0, after storage for 40° C./2 weeks
[9] = human ghrelin 0.5 mg/mL in citrate buffer solution pH 4.0, just after preparation
[10] = human ghrelin 0.5 mg/mL in citrate buffer solution pH 4.5, after storage for 40° C./2 weeks
[11] = human ghrelin 0.5 mg/mL in citrate buffer solution pH 4.5, just after preparation
[12] = human ghrelin 0.5 mg/mL in citrate buffer solution pH 5.0, after storage for 40° C./2 weeks
[13] = human ghrelin 0.5 mg/mL in citrate buffer solution pH 5.0, just after preparation

CCCCCCCC(=O)OC[C@H](NC(=O)[C@H](CO)NC(=O)CN)C(=O)N[C@@H](Cc1ccccc1)C(=O)N[C@@H](CC(C)C)C(=O)N[C@@H](CO)C(=O)N1CCC[C@H]1C(=O)N[C@@H](CCC(=O)O)C(=O)N[C@@H](Cc1c[nH]cn1)C(=O)N[C@@H](CCC(N)=O)C(=O)N[C@@H](CCCNC(=N)N)C(=O)N[C@H](C(=O)N[C@@H](CCC(N)=O)C(=O)N[C@@H](CCC(N)=O)C(=O)N[C@@H](CCCNC(=N)N)C(=O)N[C@@H](CCCCN)C(=O)N[C@@H](CCC(=O)O)C(=O)N[C@@H](CO)C(=O)N[C@@H](CCCCN)C(=O)N[C@@H](CCCCN)C(=O)N1CCC[C@H]1C(=O)N1CCC[C@H]1C(=O)N[C@@H](C)C(=O)N[C@@H](CCCCN)C(=O)N[C@@H](CC(C)C)C(=O)N[C@@H](CCC(N)=O)C(=O)N1CCC[C@H]1C(=O)N[C@@H](CCCNC(=N)N)C(=O)O)C(C)C [Human ghrelin]
Peak area ratio to total peak area ([1]; pH 6, 25±2°C, before storage): 99.07%
pH observed ([1]; pH 6, 25±2°C, before storage): 6.0
Peak area ratio to total peak area ([1]; pH 7, 25±2°C, 8 hr. after): 98.15%
pH observed ([1]; pH 7, 25±2°C, 8 hr. after): 7.0
Peak area ratio to total peak area ([1]; pH 7, 25±2°C, 24 hr. after): 96.18%
pH observed ([1]; pH 7, 25±2°C, 24 hr. after): 7.0
Peak area ratio to total peak area ([1]; pH 7, 25±2°C, 24 hr. after, listed as human ghrelin): less than 98%
Peak area ratio to total peak area ([1]; pH 7, 25±2°C, 48 hr. after): 93.44%
pH observed ([1]; pH 7, 25±2°C, 48 hr. after): 7.0
Peak area ratio to total peak area ([1]; pH 7, 25±2°C, 72 hr. after): 90.75%
pH observed ([1]; pH 7, 25±2°C, 72 hr. after): 7.0
Peak area ratio to total peak area ([1]; pH 7, 25±2°C, before storage): 98.97%
pH observed ([1]; pH 7, 25±2°C, before storage): 7.0
Peak area ratio to total peak area ([1]; pH 8, 25±2°C, 8 hr. after): 94.73%
pH observed ([1]; pH 8, 25±2°C, 8 hr. after): 7.9
Peak area ratio to total peak area ([1]; pH 8, 25±2°C, 24 hr. after): 87.32%
pH observed ([1]; pH 8, 25±2°C, 24 hr. after): 7.9
Peak area ratio to total peak area ([1]; pH 8, 25±2°C, 48 hr. after): 76.95%
pH observed ([1]; pH 8, 25±2°C, 48 hr. after): 7.9
Peak area ratio to total peak area ([1]; pH 8, 25±2°C, 72 hr. after): 68.30%
pH observed ([1]; pH 8, 25±2°C, 72 hr. after): 7.9
Peak area ratio to total peak area ([1]; pH 8, 25±2°C, before storage): 98.61%
pH observed ([1]; pH 8, 25±2°C, before storage): 8.0
Residual ratio [2]: more than 87%
Residual ratio [3, 6]: 89%
pH observed [3, 6]: 3.5
Residual ratio [3, 7]: 100%
pH observed [3, 7]: 3.6
Residual ratio [3, 8]: 88%
pH observed [3, 8]: 4.0
Residual ratio [3, 9]: 100%
pH observed [3, 9]: 4.0
Residual ratio [3, 10]: 86%
pH observed [3, 10]: 4.4
Residual ratio [3, 11]: 100%
pH observed [3, 11]: 4.5
Residual ratio [3, 12]: 85%
pH observed [3, 12]: 4.9
Residual ratio [3, 13]: 100%
pH observed [3, 13]: 5.0
Peak area ratio to total peak area ([4]; human ghrelin 0.1 mg/mL in purified water adjusted to pH 1.8 with hydrochloric acid, 1 day after): 97.68%
Peak area ratio to total peak area ([4]; human ghrelin 0.1 mg/mL in purified water adjusted to pH 1.8 with hydrochloric acid, 1 day after, listed as human ghrelin): less than 98%
Peak area ratio to total peak area ([4]; human ghrelin 0.1 mg/mL in purified water adjusted to pH 1.8 with hydrochloric acid, 3 days after): 95.01%
Peak area ratio to total peak area ([4]; human ghrelin 0.1 mg/mL in purified water adjusted to pH 1.8 with hydrochloric acid, before storage): 99.16%
Peak area ratio to total peak area ([4]; human ghrelin 0.1 mg/mL in purified water adjusted to pH 3.9 with hydrochloric acid, 1 day after): 99.19%
Peak area ratio to total peak area ([4]; human ghrelin 0.1 mg/mL in purified water adjusted to pH 3.9 with hydrochloric acid, 3 days after): 99.14%
Peak area ratio to total peak area ([4]; human ghrelin 0.1 mg/mL in purified water adjusted to pH 3.9 with hydrochloric acid, before storage): 99.21%
Peak area ratio to total peak area ([4]; human ghrelin 0.1 mg/mL in purified water adjusted to pH 7.8 with sodium hydroxide, 1 day after): 94.78%
Peak area ratio to total peak area ([4]; human ghrelin 0.1 mg/mL in purified water adjusted to pH 7.8 with sodium hydroxide, 1 day after, listed as human ghrelin): less than 98%
Peak area ratio to total peak area ([4]; human ghrelin 0.1 mg/mL in purified water adjusted to pH 7.8 with sodium hydroxide, 3 days after): 87.84%
Peak area ratio to total peak area ([4]; human ghrelin 0.1 mg/mL in purified water adjusted to pH 7.8 with sodium hydroxide, before storage): 98.85%
Peak area ratio to total peak area ([4]; human ghrelin 0.1 mg/mL in purified water, pH 4.7 (not adjusted), 1 day after): 99.12%
Peak area ratio to total peak area ([4]; human ghrelin 0.1 mg/mL in purified water, pH 4.7 (not adjusted), 3 days after): 98.94%
Peak area ratio to total peak area ([4]; human ghrelin 0.1 mg/mL in purified water, pH 4.7 (not adjusted), before storage): 99.20%
pH of the solution ([4]; human ghrelin dissolved in purified water, about 0.03 μmol/mL (0.1 mg/mL)): 4.7
Human ghrelin concentration of the solution (Initial Conc. = 100) ([5]; Glass tube, replaced 5 times): 0
Human ghrelin concentration of the solution (Initial Conc. = 100) ([5]; Glass tube, replaced 10 times): 0
Human ghrelin concentration of the solution (Initial Conc. = 100) ([5]; Initial Conc.): 100
Human ghrelin concentration of the solution (Initial Conc. = 100) ([5]; Polypropylene tube, replaced 5 times): 51
Human ghrelin concentration of the solution (Initial Conc. = 100) ([5]; Polypropylene tube, replaced 10 times): 19

— US8440628B2, “Medical compositions containing ghrelin” (Daiichi Sankyo Company, Limited, priority 2002, dated 2013)
